“Also recorded” adds a separate entry of the source. Where a SMILES comes first, the peptide text is derived from it.
How the values were obtained:
[1] = test system: transient receptor potential channel family; settings: cited from earlier work
Excerpt: In previous in vitro studies, NPSR1 has been expressed in HEK293 or CHO cells. These studies focused on comparing NPS and NPSR1 variants with respect to their Gαq and Gαs activity, i.e. their efficiency to induce intracellular calcium responses and cAMP production upon receptor stimulation, analyzing population responses from plate readers instead of confocal single-cell calcium imaging.

IP3R = test: IP3 receptor antagonist 2-APB against NPS-evoked calcium signals; format: cell-based, mouse
SERCA-ATPases = test: SERCA inhibition with CPA: calcium leakage and effect on NPS-evoked calcium signals; format: cell-based, mouse
[2] = test system: voltage activated calcium channels (Cav); test: Cav blocker cocktail on NPS-evoked calcium signals; format: cell-based, mouse; settings: NPS 500 nM, first application, 148 neurons; mean ± SD
[3] = test system: Colo205 cells expressing NPSR1; settings: cited from earlier work
Excerpt: (§1) Despite these numerous biological functions, little is known about the molecular mechanisms underlying NPS receptor activity. […] However, the intracellular pathways downstream to NPSR1 activation have not been identified in deta ...

human NPSR1 variants = settings: HEK293 or CHO cells; ref [1],[10],[23]–[25]; cited from earlier work
Excerpt: as §1

[4] = test system: store-operated calcium entry (SOCE); test: Store-operated calcium entry on re-addition of Ca2+ after NPS in calcium-free solution; format: cell-based, mouse; settings: NPS 500 nM, n = 47 cells, mean ± SD
[5] = test system: ryanodine receptors (RyR); test: Ryanodine receptor contribution to NPS-evoked calcium signals; format: cell-based, mouse; settings: NPS 500 nM, mean ± SD
[6] = target: T1, human neuropeptide S receptor (NPSR1) (Homo sapiens, UniProt Q6W5P4); test: Single-cell calcium imaging (Fluo4) of NPS-evoked calcium signals in hippocampus neurons expressing NPSR1-mCherry; format: cell-based
T1 construct: expressed in transfected cells; host or cells: primary hippocampal neurons of P0-P2 C57BL/6 mice, transduced with AAV6 AAV-NPSR1-TS-mCherry-ER (hSyn promoter)
T1 sequence (Q6W5P4 1-371): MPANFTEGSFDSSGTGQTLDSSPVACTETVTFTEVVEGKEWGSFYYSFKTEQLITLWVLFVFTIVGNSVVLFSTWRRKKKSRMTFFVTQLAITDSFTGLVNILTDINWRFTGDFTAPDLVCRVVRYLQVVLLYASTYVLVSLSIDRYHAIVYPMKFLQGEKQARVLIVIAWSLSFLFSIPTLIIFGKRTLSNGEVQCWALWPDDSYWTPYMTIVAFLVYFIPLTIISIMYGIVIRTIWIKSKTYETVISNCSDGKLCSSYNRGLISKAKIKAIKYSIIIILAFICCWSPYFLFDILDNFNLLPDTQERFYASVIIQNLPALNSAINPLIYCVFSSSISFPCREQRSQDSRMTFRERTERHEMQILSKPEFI

NPSR1 [7] = test: NPSR1 antagonist SHA68 against NPS-evoked calcium signals in NPSR1-expressing hippocampus neurons; format: cell-based, human
[8] = test system: NPSR1-expressing hippocampus neurons, influx of extracellular calcium; test: NPS-evoked calcium signals in calcium-free solution / slow component (calcium influx); format: cell-based, mouse; settings: NPS 500 nM, mean ± SD
SOCE [9] = test: SOCE blockers on slow component of NPSR1-evoked calcium signals; format: cell-based, mouse; settings: NPS 500 nM
[10] = test system: untransfected hippocampus neurons; test: Calcium imaging of NPS in untransfected hippocampus neurons (control); format: cell-based, mouse; settings: NPS 500 nM, 936 untransfected neurons
NPSR1 [11] = settings: cited from earlier work
SOCE [12] = test system: SOCE; parameters: method as in PMID 12149283, PMID 2173565, PMID 18285445, PMID 21541286; settings: non-excitable cells and neurons; ref [36]–[38], [39]; cited from earlier work
STIM-mediated SOCE = settings: HeLa cells overexpressing STIM1; ref [50]; cited from earlier work
Excerpt: Store-operated calcium channels (SOCs) responsible for SOCE are known to be composed by the calcium release-activated calcium modulator 1 (ORAI) and members of the transient receptor potential type c (TRPC) channel families. Channel-activation is induced by interaction with the ER calcium sensor stromal interaction molecule (STIM).

[13] = test system: NPSR1-mediated calcium signals (action potentials suppressed); format: cell-based, mouse
[14] = repeated NPS 500 nM, 675 s interval, 111 neurons, mean ± SD, ANOVA p = 0.0133

2-aminoethoxydiphenyl borate [2-APB]
modulation of transient receptor potential channel family members [1]: modulates several members of the transient receptor potential channel family | effect of 2-APB on responses to NPS (IP3R): prevented responses to NPS | normalized mean fluorescence amplitude evoked by NPS after 2-APB washout (IP3R): 2.2 ± 2.13 | normalized mean fluorescence amplitude evoked by NPS in presence of 2-APB (IP3R): 0.39 ± 0.61

CC(O)=C1C(=O)C2C3c4cccc5[nH]cc(c45)CC3C(C)(C)N2C1=O (centres unmarked) [CPA, cyclopiaconic acid]
normalized mean amplitude evoked by NPS after CPA (SERCA-ATPases; CPA 30 μM (500–650 s), NPS 500 nM, n = 397, mean ± SD, vs baseline p = 0.9992): 0.27 ± 0.4 | transient increase in cytosolic calcium evoked by CPA (fluorescence amplitude) (SERCA-ATPases; CPA 30 μM, 397 neurons, mean ± SD): 1.6 ± 1.17 | effect of CPA on NPSR1-mediated calcium signals (SERCA-ATPases; CPA 30 μM, NPS 500 nM, n = 397, ANOVA p < 0.0001): abolished NPSR1-mediated calcium signals

CSCC[C@H](NC(=O)CNC(=O)[C@@H](NC(=O)CNC(=O)[C@@H](NC(=O)CNC(=O)[C@H](CC(N)=O)NC(=O)[C@H](CCCNC(=N)N)NC(=O)[C@H](Cc1ccccc1)NC(=O)[C@@H](N)CO)C(C)C)[C@@H](C)O)C(=O)N[C@@H](CCCCN)C(=O)N[C@@H](CCCCN)C(=O)N[C@H](C(=O)N[C@@H](CO)C(=O)N[C@@H](Cc1ccccc1)C(=O)N[C@@H](CCC(N)=O)C(=O)N[C@@H](CCCNC(=N)N)C(=O)N[C@@H](C)C(=O)N[C@@H](CCCCN)C(=O)N[C@@H](CO)C(=O)O)[C@@H](C)O [NPS, neuropeptide S] (H-SFRNGVGTGMKKTSFQRAKS-OH; N-terminus and C-terminus assumed)
integral of response amplitude during recovery phase, control conditions [2]: 36.2 ± 7.5 x 10^4 (arbitrary units) | cell proliferation and MAP kinase phosphorylation [3]: dose-dependent stimulation of cell proliferation and MAP kinase phosphorylation | calcium mobilization and cAMP accumulation (human NPSR1 variants): elicit calcium mobilization and cAMP accumulation | integral of response amplitude after re-addition of Ca2+, NPS applied once again under Ca2+-free conditions ([4]; ANOVA p < 0.0001): 5.9 ± 4.9 x 10^4 (arbitrary units) | integral of response amplitude after re-addition of Ca2+, first NPS application under calcium-free conditions ([4]; control without NPS 2.1 ± 3.2 x 10^4): 14.8 ± 7.2 x 10^4 (arbitrary units) | normalized mean fluorescence amplitude evoked by NPS prior to ryanodine ([5]; 136 neurons): 2.7 ± 1.48 | normalized mean fluorescence amplitude, control recordings without ryanodine, first NPS application ([5]; 155 control neurons): 2.35 ± 1.9 | normalized mean fluorescence amplitude, control recordings without ryanodine, second NPS application ([5]; 155 control neurons): 1.74 ± 1.4 | amplitude of second NPS application normalized to the first, control cells ([5]; no ryanodine): 0.77 ± 0.35 | increase in normalized mean fluorescence (f/f0) over baseline [6]: 3.5 ± 2.9 | rise time of NPSR1-dependent calcium signal (5–95% of max) ([6]; NPS 500 nM, initial rapid component, mean ± SD): 9.47 ± 5.77 s | decay time of NPSR1-dependent calcium signal (95–5% of max) ([6]; NPS 500 nM, slower recovery phase, mean ± SD): 132.71 ± 94.11 s | normalized mean fluorescence amplitude, 1st application [6, 14]: 3.6 ± 3.1 | normalized mean fluorescence amplitude, 2nd application [6, 14]: 3.2 ± 3.3 | normalized mean fluorescence amplitude, 3rd application [6, 14]: 2.4 ± 2.3 | normalized mean fluorescence amplitude evoked by NPS, first application before 2-APB (IP3R; NPS 500 nM, 166 neurons, mean ± SD): 3.86 ± 2.34 | normalized mean fluorescence amplitude, NPS before SHA68 (NPSR1 [7]; NPS 250 nM, 204 neurons, mean ± SD): 2.9 ± 1.8 | integral of response amplitude over time, slow component, control conditions ([8]; 3 mM CaCl2, 229 cells): 36.6 ± 8.3 x 10^4 (arbitrary units) | integral of response amplitude over time, slow component, Ca2+-free solution ([8]; Ca2+-free, 5 mM EGTA, 65 neurons, t-test p < 0.0001): 23.4 ± 3.9 x 10^4 (arbitrary units) | amplitude of initial fast component of NPS-evoked calcium signal, calcium-free conditions ([8]; nominally calcium-free, 5 mM EGTA, 65 neurons, t-test vs control p = 0.1054): 2.9 ± 1.9 | integral of response amplitude of slow component, control conditions (no SOCE blocker) (SOCE [9]; 229 cells, mean ± SD): 36.6 ± 8.3 x 10^4 (arbitrary units) | mean fluorescence amplitude evoked by NPS before CPA (SERCA-ATPases; NPS 500 nM, 397 neurons, mean ± SD): 4.4 ± 2.69 | mean fluorescence amplitude evoked by NPS, first application before U73122 (PLC): 3.44 ± 1.27 | calcium response to NPS in untransfected neurons [10]: no increase in normalized mean fluorescence intensity could be detected; also recorded: calcium responses could not be detected

O=C(NCc1ccc(F)cc1)N1CCN2C(=O)OC(c3ccccc3)(c3ccccc3)C2C1 (centres unmarked) [SHA68, 3-oxo-1,1-diphenyl-tetrahydro-oxazolo[3,4-a]pyrazine-7-carboxylic acid 4-fluoro-benzylamide]
effect of SHA68 on NPS-evoked Ca2+ signals (NPSR1 [7]): NPS application failed to induce Ca^2+ signals in the same neurons; also recorded: reduced the effect of NPS to a level non-significantly different from baseline | normalized mean fluorescence amplitude evoked by NPS after washout of SHA68 (NPSR1 [7]): 1.2 ± 1.6 | normalized mean fluorescence amplitude evoked by NPS in presence of SHA68 (NPSR1 [7]): 0.5 ± 0.7 | effect on NPS-mediated calcium mobilization (NPSR1 [11]): blocks NPS-mediated calcium mobilization

COc1ccc(CCCOC(Cn2ccnc2)c2ccc(OC)cc2)cc1 (centres unmarked) [SKF96365]
inhibition of SOCE (SOCE [12]): inhibit SOCE | effect on duration and amplitude of slow component of NPSR1-evoked calcium signals (SOCE [9]; ML-9 50 μM, SKF96365 15 μM): consistently reduced the duration and amplitude of the slow component | integral of response amplitude of slow component in presence of SKF96365 (SOCE [9]; SKF96365 15 μM (300 s pre-incubation), 127 cells, mean ± SD): 30.42 ± 3.8 x 10^4 (arbitrary units) | inhibition of STIM-mediated SOCE (STIM-mediated SOCE): inhibit STIM-mediated SOCE

NC1=N[C@H](O)[C@H]2[C@H]3O[C@]4(O)O[C@@H]([C@@H](O)[C@@]2(N1)[C@@H]4O)[C@]3(O)CO [TTX, tetrodotoxin]
effect of TTX on NPSR1-mediated calcium signals [13]: not affected

COc1ccc2c(c1)CC[C@@H]1[C@@H]2CC[C@]2(C)[C@@H](NCCCCCCN3C(=O)C=CC3=O)CC[C@@H]12 [U73122]
effect of U73122 on NPS-mediated calcium release (PLC): abolished NPS-mediated calcium release | mean fluorescence amplitude when U73122 and NPS were co-applied (PLC): 0.14 ± 0.14

ryanodine
normalized mean fluorescence amplitude evoked by NPS in presence of ryanodine ([5]; ryanodine 50 μM (300 s pre-incubation), 136 neurons, ANOVA p < 0.0001): 0.51 ± 0.37 | amplitude of second NPS application normalized to the first, RyRs blocked ([5]; ryanodine 50 μM, t-test vs control p < 0.0001): 0.24 ± 0.25

Reference: paper PMC4340626, “Neuronal Expression of the Human Neuropeptide S Receptor NPSR1 Identifies NPS-Induced Calcium Signaling Pathways” (PLoS ONE, 2015)
